PMC12770358, “Molecular defense strategy of volatile organic compound-emitting plants (order Piperales) against herbivorous mammals” (Communications Biology, 2025)

Experiments:
Type in all cases: cell-based
TRPA1 [1] = molecular target: T1, TRPA1 (Homo sapiens, UniProt O75762); assay: excised-patch single-channel recording and calcium imaging, […]
T1 construct: Human TRPA1 (NM_007332) expressed in HEK293T cells

TRPA1 [2] = molecular target: T1, TRPA1; assay: whole-cell and excised-patch (inside-out/outside-out) patch clamp, calcium imaging
TRPA1 [3] = molecular target: T2, TRPA1 (Homo sapiens, UniProt O75762, C641A); assay: whole-cell patch clamp dose-response
T2 construct: hTRPA1 mutant expressed in HEK293 cells
T2 sequence (O75762 whole entry C641A): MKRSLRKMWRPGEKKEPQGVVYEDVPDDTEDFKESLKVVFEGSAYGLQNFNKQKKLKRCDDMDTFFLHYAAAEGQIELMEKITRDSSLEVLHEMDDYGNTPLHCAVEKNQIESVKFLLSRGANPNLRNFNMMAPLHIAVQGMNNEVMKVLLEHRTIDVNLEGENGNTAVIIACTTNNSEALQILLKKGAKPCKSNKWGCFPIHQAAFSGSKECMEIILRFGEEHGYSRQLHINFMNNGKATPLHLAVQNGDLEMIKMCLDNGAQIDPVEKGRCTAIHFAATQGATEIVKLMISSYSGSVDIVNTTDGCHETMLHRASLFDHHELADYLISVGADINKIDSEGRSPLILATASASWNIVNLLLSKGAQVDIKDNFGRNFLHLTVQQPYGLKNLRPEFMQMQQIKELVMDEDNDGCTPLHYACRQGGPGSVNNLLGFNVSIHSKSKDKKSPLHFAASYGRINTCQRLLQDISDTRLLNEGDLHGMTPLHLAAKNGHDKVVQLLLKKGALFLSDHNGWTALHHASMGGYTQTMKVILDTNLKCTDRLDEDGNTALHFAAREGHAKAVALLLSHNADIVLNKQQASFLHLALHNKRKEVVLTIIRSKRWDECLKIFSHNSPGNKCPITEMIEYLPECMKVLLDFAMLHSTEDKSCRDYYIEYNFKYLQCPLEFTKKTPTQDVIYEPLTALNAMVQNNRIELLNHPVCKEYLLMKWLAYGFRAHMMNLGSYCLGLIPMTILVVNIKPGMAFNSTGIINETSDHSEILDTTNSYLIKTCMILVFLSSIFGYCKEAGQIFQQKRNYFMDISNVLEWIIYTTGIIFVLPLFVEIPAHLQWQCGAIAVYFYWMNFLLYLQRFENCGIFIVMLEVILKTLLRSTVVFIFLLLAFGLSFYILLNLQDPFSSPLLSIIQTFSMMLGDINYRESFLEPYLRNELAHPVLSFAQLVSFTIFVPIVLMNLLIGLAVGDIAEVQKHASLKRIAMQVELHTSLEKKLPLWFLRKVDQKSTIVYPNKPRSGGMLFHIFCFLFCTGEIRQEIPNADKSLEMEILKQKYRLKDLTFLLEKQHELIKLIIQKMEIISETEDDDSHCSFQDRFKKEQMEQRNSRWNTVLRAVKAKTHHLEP

T1 sequence (O75762 whole entry): as the sequence (O75762 whole entry C641A) above, with A641C counted along it

| Structure (SMILES) | excised-patch single-channel recording and calcium imaging, 1 mM (TRPA1 [1]) | EC50 (TRPA1 [2]) | EC50 (TRPA1 [3]) |
| --- | --- | --- | --- |
| C=CCN=C=S [AITC, allyl isothiocyanate] | consistently observed in both configurations, mirroring the effects of AITC, a membrane-permeable TRPA1 agonist | – | – |
| CCCCCCCCCC(=O)CC(O)S(=O)(=O)O (stereo not drawn) [SH, sodium houttuyfonate] | – | 343 ± 12.5 µM | 432 ± 9.72 µM |
